According to patent publication US12018305B2, “Process for production of nigericin from Streptomyces sp. MCC-0151” (Council of Scientific & Industrial Research, priority 2018, dated 2024):
≈ marks a conversion by molar mass, not a printed value. Where two headings read alike, the source gives them in different places.

Columns and labels:
[1] = test system: Micrococcus luteus (ATCC 11880); experiment: Antibacterial activity (MIC) against Micrococcus luteus; format: cell-based; settings: ATCC11880, range stated over five gram-positive microorganisms, read-out: minimum inhibitory concentration (MIC)
Excerpt: (§1) FIG. 1A depicts the inhibition of S. aureus growth at varying concentrations of nigericin from Streptomyces sp. MCC-0151. FIG. 1B depicts the antibacterial activity of nigericin from Streptomyces sp. MCC0151 against S. aureus.

[2] = test system: Listeria monocytogenes (ATCC 19111); experiment: Antibacterial activity (MIC) against Listeria monocytogenes; format: cell-based; settings: ATCC19111, range stated over five gram-positive microorganisms, read-out: minimum inhibitory concentration (MIC)
Excerpt: as §1

[3] = Toxicokinetic study, 14-day repeated intraperitoneal administration in Sprague-Dawley rats; format: in vivo; settings: for Tmax / AUClast / Cmax / AUC(0-t) / Cmax at 14 day / Tmax at 14 day: Sprague-Dawley, ip; for AUC(0-t): AUClast
Description: (§2) A 14-day repeat-intraperitoneal administration protocol was used for carrying out toxicokinetic studies with nigericin. Male and female animals were divided into three groups each based on the dose of nigericin administered (0.5, 1.5 and 5 mg/kg/day). Each group received the administration of the compound at the same dose every day for 14 days. The toxicokinetic parameters were quantified following the first (i.e., day-1) and last (i.e., day-14) administration of nigericin, and the findings are tabulated in Table-3. Following administration on day-1, nigericin was quantifiable in the plasma of the animals for up to 24 h, in all three dose-categories, in both genders. After the administration of the second dose on day-14, plasma concentrations were quantifiable up to 8 h for 0.5 mg/kg/day dose category and up to 24 h for 1.5 mg/kg/day dose category, in both genders.

[4] = test system: Bacillus cereus (ATCC 11778); experiment: Antibacterial activity (MIC) against Bacillus cereus; format: cell-based; settings: ATCC11778, range stated over five gram-positive microorganisms, read-out: minimum inhibitory concentration (MIC)
Sprague-Dawley rats = experiment: 14-day repeated intraperitoneal dose toxicity in Sprague-Dawley rats; format: in vivo; settings: for mortality: female rats, 5 mg/kg/day IP, before Day 14, 5 mg/kg/day
Description: as §2
The 5 mg/kg/day was lethal in females.

P. falciparum strain 3D7 = experiment: Antimalarial activity: inhibition of blood-stage malaria parasite growth (SybrGreen I); format: cell-based; settings: Plasmodium falciparum, 60 h incubation
Description: Asexual stage of P. falciparum strain 3D7 (received as a gift from collaborator team) was maintained under standard conditions at 2% hematocrit with 0+ human erythrocytes (Blood obtained from Poona Serological Trust Blood Bank, Pune) in RPMI1640 containing 15 mM HEPES, 50 mg/L Gentamicin sulfate 10 mg/L hypoxanthine, 2 g/L sodium bicarbonate (Sigma-Aldrich) and 2.5 g/L AlbuMAX II (Thermo Fisher Scientific). Parasites were synchronized using 5% sorbitol (Sigma-Aldrich) for the enrichment of ring-stage parasite. In brief, P. falciparum cultures were collected by centrifugation at 1,000 g for 5 min at 25° C. and the parasitized RBC pellet was resuspended 5% sorbitol, followed by incubation at 37° C. for 10 min. Following incubation, the cells were pelleted and washed with complete medium, prior to placing the parasites back into culture flasks at 2% hematocrit and 2% parasitemia.
Assays were typically set up in 96-well plate format and 2% of parasitized culture was used per well. The stock solution of the nigericin was prepared in DMSO, and so 0.5% DMSO (equivalent to the DMSO present in the nigericin-treated samples) treatment was used as a control. […]

in vivo = experiment: in vivo; set-up: species or system Sprague Dawley rats; settings: male, Sprague Dawley, rat
Description: Oral solution bioavailability was 2%.
Plasma Pharmacokinetics study of Nigericin was carried out using three different routes of administration i.e. Intravenous (IV), Oral (O) and Intraperitoneal (IP). Based on above study, the intraperitoneal route of administration was selected to study the toxicokinetic profiling of Nigericin.

[5] = test system: Staphylococcus aureus (ATCC 29737); experiment: Antibacterial activity (MIC) against Staphylococcus aureus; format: cell-based
Excerpt: as §1

murine splenocytes = format: cell-based
Excerpt: FIG. 3 depicts a comparison of the in-vitro toxicity of nigericin isolated from Streptomyces sp. MCC-0151 and commercially available Nigericin on murine splenocytes. ‘▴’ represents nigericin from Streptomyces sp. MCC 0151 and ‘▾’ represents standard Nigericin.
MCCO151 and Sigma standard nigericin. Nigericin produced from Streptomyces sp.

[6] = test system: Staphylococcus epidermidis (ATCC 12228); experiment: Antibacterial activity (MIC) against Staphylococcus epidermidis; format: cell-based; settings: ATCC12228, range stated over five gram-positive microorganisms, read-out: minimum inhibitory concentration (MIC)
[7] = female, rat, in vivo, 0.5 mg/kg/day
[8] = female, rat, in vivo, 1.5 mg/kg/day
[9] = male, rat, in vivo, 0.5 mg/kg/day, Cmax
[10] = male, rat, in vivo, 0.5 mg/kg/day, Tmax
[11] = male, rat, in vivo, 1.5 mg/kg/day
[12] = male, rat, in vivo, 1.5 mg/kg/day, Cmax
[13] = male, rat, in vivo, 1.5 mg/kg/day, Tmax
[14] = male, rat, in vivo, 5 mg/kg/day
[15] = male, rat, in vivo, 5 mg/kg/day, Cmax
[16] = male, rat, in vivo, 5 mg/kg/day, Tmax
[17] = 14-day repeated IP, conclusion of study

Compound: CO[C@@H]1C[C@@H](C[C@H]2CC[C@H](C)[C@H]([C@@H](C)C(=O)O)O2)O[C@]2(O[C@](C)([C@H]3CC[C@@](C)([C@@H]4O[C@@H]([C@H]5O[C@@](O)(CO)[C@H](C)C[C@@H]5C)C[C@@H]4C)O3)C[C@H]2C)[C@@H]1C [nigericin]
- MIC [1]: 0.25 to 0.5 µM (≈ 0.181 to 0.362 µg/mL)
- MIC [2]: 0.25 to 0.5 µM (≈ 0.181 to 0.362 µg/mL)
- male/female exposure ratio (AUClast) ([3]; Day 1, 0.5 mg/kg/day): 2.11
- male/female exposure ratio (AUClast) ([3]; Day 1, 1.5 mg/kg/day): 0.68
- male/female exposure ratio (AUClast) ([3]; Day 1, 5 mg/kg/day): 1.15
- male/female exposure ratio (AUClast) ([3]; Day 14, 0.5 mg/kg/day): 0.90
- male/female exposure ratio (AUClast) ([3]; Day 14, 1.5 mg/kg/day): 1.21
- Tmax ([3]; rat, in vivo, Mean Tmax across the doses): 4.8 to 25.2 min
- accumulation following repeated intraperitoneal dose administration ([3]; across the doses, both genders): No trend of accumulation
- quantifiable in plasma for up to ([3]; day-1, all three doses (0.5, 1.5, 5 mg/kg/day IP), both genders): up to 24 h
- accumulation ratio (AUClast) on Day 14 ([3]; female, 0.5 mg/kg/day): 1.04
- accumulation ratio (AUClast) on Day 14 ([3]; female, 1.5 mg/kg/day): 0.51
- Dose exposure ratio ([3]; female, Day 1, dose increase 0.5 to 1.5 mg/kg/day): 5.91
- Dose exposure ratio ([3]; female, Day 1, dose increase 1.5 to 5 mg/kg/day): 2.33
- Dose exposure ratio ([3]; female, Day 14, dose increase 0.5 to 1.5 mg/kg/day): 2.89
- AUClast [3, 7]: 0.54987 µg·h/mL
- Cmax [3, 7]: 0.22217 µg/mL
- AUC(0-t) [3, 7]: 0.527 µg·h/mL
- Cmax ([3]; female, rat, in vivo, 0.5 mg/kg/day, Cmax): 0.188 µg/mL
- Tmax ([3]; female, rat, in vivo, 0.5 mg/kg/day, Tmax): 19.8 min
- AUClast [3, 8]: 1.58938 µg·h/mL
- Cmax [3, 8]: 0.71063 µg/mL
- AUC(0-t) [3, 8]: 3.12 µg·h/mL
- Cmax ([3]; female, rat, in vivo, 1.5 mg/kg/day, Cmax): 0.84 µg/mL
- AUC(0-t) ([3]; female, rat, in vivo, 5 mg/kg/day): 7.26 µg·h/mL
- Cmax ([3]; female, rat, in vivo, 5 mg/kg/day, Cmax): 2.44 µg/mL
- Tmax ([3]; female, rat, in vivo, 5 mg/kg/day, Tmax): 19.8 min
- accumulation ratio (AUClast) on Day 14 ([3]; male, 0.5 mg/kg/day): 0.44
- accumulation ratio (AUClast) on Day 14 ([3]; male, 1.5 mg/kg/day): 0.90
- accumulation ratio (AUClast) on Day 14 ([3]; male, 5 mg/kg/day): 0.98
- Dose exposure ratio ([3]; male, Day 1, dose increase 0.5 to 1.5 mg/kg/day): 1.91
- Dose exposure ratio ([3]; male, Day 1, dose increase 1.5 to 5 mg/kg/day): 3.93
- Dose exposure ratio ([3]; male, Day 14, dose increase 0.5 to 1.5 mg/kg/day): 3.89
- Dose exposure ratio ([3]; male, Day 14, dose increase 1.5 to 5 mg/kg/day): 4.26
- Cmax [3, 9]: 0.403 µg/mL
- Cmax at 14 day [3, 9]: 0.2 µg/mL
- Tmax [3, 10]: 15 min
- Tmax at 14 day [3, 10]: 16.8 min
- AUClast [3, 11]: 2.12623 µg·h/mL
- AUC(0-t) [3, 11]: 1.92 µg·h/mL
- Cmax [3, 12]: 0.83 µg/mL
- Cmax at 14 day [3, 12]: 0.815 µg/mL
- Tmax [3, 13]: 19.8 min
- Tmax at 14 day [3, 13]: 4.8 min
- AUClast [3, 14]: 8.34782 µg·h/mL
- AUC(0-t) [3, 14]: 8.19 µg·h/mL
- Cmax [3, 15]: 2.39 µg/mL
- Cmax at 14 day [3, 15]: 3.06 µg/mL
- Tmax [3, 16]: 19.8 min
- Tmax at 14 day [3, 16]: 19.8 min
- plasma exposure (AUClast) with increase in dose ([3]; rat, in vivo): dose-related increase
- MIC [4]: 0.25 to 0.5 µM (≈ 0.181 to 0.362 µg/mL)
- abnormal clinical signs (Sprague-Dawley rats; 0.5 mg/kg/day IP, 14 consecutive days): did not result in abnormal clinical signs
- dose that can be lethal (Sprague-Dawley rats; [17]): above 5 mg/kg
- dose that will not cause any clinical adversity (Sprague-Dawley rats; [17]): < 1.5 mg/kg
- mortality (Sprague-Dawley rats): Mortality was observed
- mortality (Sprague-Dawley rats; listed as Nigericin): lethal
- mortalities (Sprague-Dawley rats; up to 1.5 mg/kg/day IP, 14 consecutive days): did not result in
- effect on ophthalmoscopy, coagulation, urinalysis and reticulocytes count (Sprague-Dawley rats; up to highest surviving dose 1.5 mg/kg/day IP): no test item related effect
- IC50 (P. falciparum strain 3D7; read-out: IC50 against P. falciparum): ~0.986 nM
- EC50 (P. falciparum strain 3D7; blood-stage parasite growth, n=3): 2.4 nM
- Tmax (in vivo; ip, 2 mg/kg): 15 min
- plasma concentrations quantifiable up to (in vivo; ip, 2 mg/kg): up to 24 hr
- Vss relative to normal volume of total body water (0.7 L/kg) (in vivo; iv, 2 mg/kg): 2.3 fold
- clearance (in vivo; iv, 2 mg/kg): 0.906 L/h/kg
- half-life (in vivo; iv, 2 mg/kg): 212 min
- Tmax (in vivo; po, 10 mg/kg): 37.8 min
- bioavailability (in vivo; po, 10 mg/kg): 2%
- plasma concentrations quantifiable up to (in vivo; po, 10 mg/kg): up to 24 hr
- MIC ([5]; ATCC29737, against Staphylococcus aureus, read-out: MIC): 0.21 mg/L
- MIC ([5]; ATCC29737, against Staphylococcus aureus, read-out: MIC Conc.): 0.288 µM
- MIC ([5]; Staphylococcus aureus, ATCC29737, range stated over five gram-positive microorganisms, read-out: minimum inhibitory concentration (MIC)): 0.25 to 0.5 µM
- MIC ([5]; against Staphylococcus aureus, read-out: MIC): 0.21 mg/L
- toxicity against murine splenocytes compared to commercially available nigericin (Sigma) (murine splenocytes): no statistically significant difference
- MIC [6]: 0.25 to 0.5 µM (≈ 0.181 to 0.362 µg/mL)
